Test results reported in patent US5527773A, “Use of synthetic peptides to disrupt the cytoskeleton” (United States of America, priority 1993, dated 1996).

Tests used:
preformed keratin IFs = experiment: Disassembly of preformed keratin IFs by synthetic peptides (light scattering, electron microscopy); assay type: biochemical, human
Description: In vitro filament assembly assays (1-1.5 mg/ml) were performed by dialysis for 2 hours each into decreasing concentrations of urea (6, 4, 2, 1 and 0M) containing 5 mM Tris-HCl, pH 7.6, 1 mM EDTA, 1 mM dithiothreitol. […]. Light scattering was measured at 310 nm in a Beckman DU65 spectrophotometer. Synthetic peptides (1-30 μl of a 0.5-2 mg/ml solution) were added to 1 ml samples of keratin filaments, incubated at 37° C., and filament assembly was measured by light scattering. […] Samples of these reactions were also collected for visualization by electron microscopy and stopped by negative staining with freshly-prepared 0.7% uranyl acetate.
Peptides corresponding to the H1, beginning of 1A, and full-length 1A regions (SEQ ID NO: 1-3) of the human keratin 1 chain were individually mixed with preformed keratin IFs in vitro at a 1:1 molar ratio.

[1] = system: keratin and vimentin/desmin IF networks in PtK2, BHK21 and mouse 3T3 fibroblasts; experiment: Microinjection of the 1A peptide into cells, indirect immunofluorescence and confocal microscopy; assay type: cell-based, kangaroo rat, baby hamster
Description: The synthetic peptide corresponding to the keratin 1 chain 1A region (SEQ ID NO: 2) was microinjected into PtK2, BHK21 and mouse 3T3 fibroblasts according to the procedure of Vikstrom et al. (Proc. Natl. Acad. Sci. U.S.A., (1989) 86: 549-553; Methods Enzymol., (1991) 176: 506-525). BHK-21 cells contain type III filaments composed of vimentin and desmin, while 3T3 cells contain only vimentin. PtK2 cells contain mainly keratin. Briefly, peptides in 20 mM Tris-HCl. pH 8.5, 0.17M NaCl, 3 mM KCl were clarified by centrifugation for 30 min at 100,000×g immediately prior to microinjection. Protein concentrations in samples were determined by the method of Bradford (Anal. Biochem., 72: 248-254 (1976)). Micropipettes (W-P instruments) were prepared on a micropipette puller (Industrial Science Associates). Microinjections were monitored with a Leitz Diavert phase-contrast microscope fitted with a Leitz micromanipulator according to standard techniques (Graessmann and Graessmann, (1976) Proc. Natl. Acad. Sci. U.S.A., 73: 366-370; Kreis and Birchmeier, (1982) Int. Rev. Cytol., 75: 209-227).
(§1) Microinjected cells were prepared for indirect immunofluorescence and confocal microscopy as described (Yang et al., (1985) J. Cell Biol., 100: 620-631). IF disassembly was assessed by immunofluorescence using antibodies against IFs. […] At 1 mg/ml peptide, cells rounded up completely within 30 min, respreading and regaining their shape after a few hours. […] The rounded-up cells contained spots of fluorescence indicating a rather complete disruption of IF structure. Recovery occurred within 3-4 hours indicating a need to maintain a constant supply of peptide to maintain the disassembled state of the IF network. The 1A peptide was soluble at 5-10 mg/ml, although higher concentrations may also be obtainable.

[2] = Solubility of the peptide; assay type: physicochemical
Description: as §1

## 1A*: the first 18 amino acids of SEQ ID NO: 2 (1A peptide) (REQIKSLNNQFASFIDKV)
Preformed keratin IFs; 1:1 molar ratio
  reversibility of disassembly: reversible upon removal of the peptide
Preformed keratin IFs; 1:1 molar ratio peptide to preformed keratin IFs, light scattering and electron microscopy
  time to disassembly of preformed IFs down to single coiled-coil molecules: ≤ 30 min
[1]; 1 mg/ml peptide
  IF structure by immunofluorescence during rounding: disorganized arrays of IFs
  time to complete rounding up of cells: ≤ 30 min
[1]; 2-5 mg/ml peptide
  alteration of IF networks: very significant alterations in both the keratin and vimentin/desmin IF networks
  time to recovery: 3 to 4 h
[1]; about 0.5 mg/ml peptide microinjected, after 15-20 min
  overall cell shape: altered slightly due to the partial rounding up
[1]; about 0.5 mg/ml peptide, 30 min post-injection
  overall IF structure by immunofluorescence: no significant changes in overall IF structure
[2]
  solubility: 5000 to 10000 µg/mL
